# Laboratory results reported in US9629893B2, “Agent derived from tortoise spleen stimulating mammalian hemopoiesis” (BMR Solutions Ltd., priority 2003, dated 2017).
# Key:
# [1] = side effects in patients; cited from earlier work
# [2] = cited from earlier work
# Irradiated mice (6.5 Gy) = test: In vivo treatment of irradiated mice with FTGN; details: one or two intravenous 50 μg injections (2 or 2 and 24 hours post-irradiation), one month later
# Description: Irradiated mice (6.5 Gy) were treated in vivo with the FTGN tetrapeptide. Thirty days after treatment BMC were counted.
# Irradiated mice (6.5 Gy) were treated in vivo with the FTGN tetrapeptide. Thirty days after treatment CFU from BM were counted.
# Irradiated mice (6.5 Gy) were treated with one or two intravenous 50 μg FTGN tetrapeptide injections (2 or 2 and 24 hours post-irradiation). BM nucleated cells count (FIG. 17) and CFUc (FIG. 18) were examined one month later.
# [3] = tested on: Whole body irradiated C57Bl/6J mice; test: Ex vivo BMC treatment with FTGN, transplantation into whole body irradiated mice; format: in vivo; details: 7.5 Gy, treated vs untreated mice (summary)
# [4] = FTGN tetrapeptide stability (HPLC); format: physicochemical
# Description: FIG. 6a: HPLC chromatogram of FTGN tetrapeptide reconstituted in water after storage at −10° C. for one year.
# FIG. 6c: HPLC chromatogram of FTGN tetrapeptide reconstituted in serum and incubated at 37° C. during 4 hours.
# Dry freeze long term storage of the FTGN oligopeptide preserved its structural (FIG. 6a) and biological activities. The dry frozen tetrapeptide conserved its physical characteristics after reconstitution in purified water or serum (FIG. 6c) and was stable after four hours of incubation at 37° C.
# [5] = tested on: Whole body irradiated (7.0 Gy) C57Bl/6J mice; test: Optimal FTGN ex vivo treatment concentration, normal or irradiated donor BMC transplanted into irradiated mice; format: in vivo
# Description: (§1) Total body irradiated mice (7.0 Gy) were injected with 6×10^4 BMC previously treated with FTGN tetrapeptide at different concentrations (0.1, 0.5, 1.0, 10.0 and 50.0 μg/ml). Spleen colonies were measured 9 days after irradiation and compared to mice transplanted with BMC incubated only with PBS.
# as §1, with “Bone marrow cells from femur” for “Spleen colonies”, “counted 4,” for “measured”, “9 and 16” for “9”
# Donor BM cells incubated ex vivo in RPMI medium in the presence (10 μg/ml) or absence of FTGN tetrapeptide for 2 hours were transplanted into irradiated recipient mice (7.0 Gy.). Twenty days after transplant BMC/bone were counted.
# In order to elucidate the optimal FTGN tetrapeptide treatment concentration needed to achieve maximum recovery of radiation damaged BMC, two sets of donor cells were examined. Donor BMC (4-6×10^6 cells/ml) from normal untreated C57 Bl/6J mice and from in vivo irradiated mice (4.5 Gy) collected 24 hours post-irradiation, were incubated for two hours with different concentrations of FTGN tetrapeptide (0.05; 0.1; 0.5; 1.0; 10 and 50 μg/ml). Whole body irradiated (7.0 Gy) C57Bl/6J mice were intravenously injected with 6×10^4 of each different donor treated cells or with control cells. The recovery of the hematopoietic system in the transplanted mice was evaluated from the 4th to the 30th day post-irradiation.
# [6] = tested on: Mice irradiated with a high lethal dose (10 Gy); test: Survival of lethally irradiated mice (10 Gy) transplanted with BM cells treated with FTGN; format: in vivo; details: 6×10^4 cells incubated one hour with 10 μg/ml, 30 days post-transplant
# Description: Lethally irradiated mice (10 Gy.) were transplanted with 60.000 donor BM cells previously incubated for 1 hour in the presence ([…]) or absence of FTGN tetrapeptide. Mice survival was pursue during 30 days and compared to control irradiated mice untreated or mice that were transplanted with untreated donor BMC.
# Mice irradiated with a high lethal dose (10 Gy) were injected with 6×10^4 cells previously incubated for one hour with 10 μg/ml FTGN tetrapeptide. Mice survival was surveyed for a 30 days period post-transplant.
# Bone marrow cells = test: In vitro incubation of BM cells with FTGN, cloning in methylcellulose medium (myeloid colonies); format: cell-based, mice; details: 10 μg/ml, 2 hours; for number of colonies: vs no tetrapeptide
# Description: FIG. 7a-c: FTGN tetrapeptide biological activity tested in vitro. BM cells were incubated in vitro in RPMI medium in the presence (10 μg/ml) or absence of FTGN tetrapeptide for 2 hours. Cells were washed and cloned in methylcellulose-containing medium.
# Bone marrow cells from normal (non irradiated) mice (4-6×10^6 cells/ml) were incubated for 2 hours with 10 μg/ml tetrapeptide; the cells were washed and cloned in cytokine-supplemented methylcellulose semi-solid medium.
# Myeloid colonies formed after two weeks were counted.
# [7] = tested on: Whole body irradiated C57Bl/6J mice; test: Ex vivo BMC treatment with FTGN, transplantation into whole body irradiated mice; format: in vivo
# Description: Mice that were whole-body irradiated with a dose of 7.5 Gy (which is normally considered a lethal dose), were transplanted by intravenous injection with donor's bone marrow cells preincubated ex vivo with different concentrations of the synthetic tetrapeptide.
# Bone marrow cells (BMC) were transplanted into mice by intravenous injection, usually 60,000 cells in 0.3 ml of PBS buffer after 2 hours incubation at 37° C. with the examined agent.
# Mice spleen colonies (CFUs) were counted using the method of Till and McCulloch [Till J. E. and McCulloch E. A. Radiation Res. (1961) 14: 213] on 9th, 11th and 14th days after irradiation.
# CFUc were assayed in semi-solid medium using 2×10^4 cells/plate.
# Donor normal BMC (4-6×10^6 cells/nil) from C57 Bl/6J mice were incubated with different concentrations of FTGN tetrapeptide (0.05; 0.1; 0.5; 1.0; 10 and 50 μg/ml) for two hours. Whole body irradiated (7.0 Gy) C57Bl/6J mice were intravenously injected with 6×10^4 treated or control cells. The recovery of the hematopoietic system in the transplanted mice was evaluated from the 4th to the 30th day post-irradiation.
# [8] = 7.5 Gy, treated vs untreated mice (summary)
# [9] = 9th day, vs mice transplanted with non-treated cells
compound,measurement,setting,value
NCCCNCCSP(=O)(O)O [amifostine],patients with nausea and vomiting,[1],approximately 53%
same,stability at room temperature once reconstituted,[2],quite limited
FTGN (listed as Testudo horsfieldi),BM repopulation (BM nucleated cells count and CFUc),Irradiated mice (6.5 Gy),increased the BM repopulation
same,number of spleen colonies,[3],substantially enhanced
same,structural and biological activities after dry freeze long term storage,"[4]; dry freeze storage, −10° C. for one year, reconstituted in water",preserved
same,stability after reconstitution in purified water or serum,[4]; four hours of incubation at 37° C.,stable
same,ex vivo treatment dose giving the greatest number of nucleated cell in BM,"[5]; 4, 9 and 16 days after irradiation, 0.05-50 μg/ml tested",1 to 10 µg/mL
same,ex vivo treatment dose giving the highest spleen colony forming units (CFUs) count,"[5]; 9th day, 0.05-50 μg/ml tested",1 to 10 µg/mL
same,BM repopulation activity after transplant,"[5]; donor cells normal or from irradiated (4.5 Gy) mouse, 10 μg/ml, 2 hours",accelerated
same,survival,[6],100%
same,myeloid colony number,"Bone marrow cells; BM cells from normal (non irradiated) mice, colonies after two weeks",increased colony number
same,number of colonies,Bone marrow cells; ex vivo irradiated cells (4.5 Gy),larger number of colonies
same,number of colonies,Bone marrow cells; in vivo irradiated cells (4.5 Gy),larger number of colonies
same,spleen weight,"[7]; 4th day after transplantation, vs control",No difference
same,number of bone marrow cells (BMC),[7]; [8],increased
same,number of white blood cells (WBC),[7]; [8],increased
same,spleen growth,[7]; [8],enhanced spleen growth
same,spleen colonies number,[7]; [9],augmented
same,spleen weight,[7]; [9],augmented
same,peripheral blood white cells counts (WBC),[7]; 16th day,improved
same,total number of nucleated bone marrow cells per femur,[7]; 16th day,doubled
same,spleen weight,"[7]; 16th day, relative to control group",lower
same,colony-forming cells (CFUbm) in the bone marrow,"[7]; semi-solid medium, 9th and 16th day",improvement when low concentrations of the oligopeptide were used
